Measured values reported in patent US9957252B2, “Metalloenzyme inhibitor compounds as fungicides” (Dow AgroSciences LLC, priority 2014, dated 2018).
Like-named read-outs stand apart in the source and are kept apart here.

Tests used:
[1] = tested on: standard laboratory SEPTTR isolate (SI SEPTTR); Mycosphaerella graminicola; Anamorph: Septoria tritici; experiment: Leaf blotch of wheat fungicidal activity, Type A assay (technical grade in acetone/water with Triton X-100, booth sprayer), standard laboratory isolate; assay type: in vivo, Mycosphaerella graminicola on wheat plants (variety Yuma); details: Zymoseptoria tritici, 24 h, 1 Day Protectant, wheat seedlings (Yuma), read-out: Disease control, SI SEPTTR Type A Assay (50 ppm) 1DP
Experimental: (§1) Evaluation of Fungicidal Activity: Leaf Blotch of Wheat (Mycosphaerella graminicola; Anamorph: Septoria tritici; Bayer code SEPTTR):
(§2) For Type A assays, technical grades of the experimental fungicides in Table 4 below were dissolved in acetone, and then mixed with nine volumes of water containing 110 ppm Triton X-100. The fungicide solutions were applied onto wheat seedlings using an automated booth sprayer. For Type B assays, emulsifiable concentrate (EC) formulations of technical grades of experimental fungicides in Table 4 below were prepared at 10% (w/v), and then mixed with 150 volumes of 0.1% Trycol 5941. The fungicide solutions were applied onto wheat seedlings using an automated track sprayer at 200 L/ha. All sprayed plants were allowed to air dry prior to further handling.
(§3) Wheat plants (variety Yuma) were grown from seed in a greenhouse in 50% mineral soil/50% soil-less Metro mix until the first leaf was fully emerged, with 7-10 seedlings per pot. Prior to or after application of experimental fungicides, plants were inoculated either with spores of a standard laboratory SEPTTR isolate (SI SEPTTR) or with spores from a SEPTTR field isolate collected from Wellsbourne, England in 2012 (FI SEPTTR). After inoculation, the plants were kept for 3 days at 20° C. in 100% relative humidity (one day in a dark dew chamber followed by two days in a lighted dew chamber). Plants were then transferred to a 20° C. greenhouse for disease development. When disease symptoms were fully expressed on untreated plants, infection levels on treated plants were assessed on a scale of 0 to 100 percent disease severity. Percent disease control was calculated using the ratio of disease severity on treated plants relative to untreated plants.

[2] = Leaf blotch of wheat fungicidal activity, Type B assay (10% EC formulation in 0.1% Trycol 5941, track sprayer 200 L/ha), field isolate; assay type: in vivo, Mycosphaerella graminicola on wheat plants (variety Yuma); details: Zymoseptoria tritici, 72 h, field isolate (Wellsbourne, England 2012), wheat seedlings (Yuma)
Experimental: as §1, §2, §3

[3] = 3 Day Curative, read-out: Disease control, FI SEPTTR Type B Assay (100 g/ha) 3DC
[4] = 3 Day Protectant, read-out: Disease control, FI SEPTTR Type B Assay (100 g/ha) 3DP

Compound	pest or weed control at 50 ppm [1]	pest or weed control at 100 g/ha [2, 3]	pest or weed control at 100 g/ha [2, 4]
CC(C)(C)C(O)(c1ccc(-c2ccccc2)cc1)c1cncnc1 (stereo not drawn) [Compound 5]	80 to 100%		
CC(C)(C)C(O)(c1ccc(-c2ccc(C(F)(F)F)cc2)cc1)c1cncnc1 (stereo not drawn) [Compound 6]	80 to 100%		
CC(C)(C)C(O)(c1ccc(-c2ccc(C(F)(F)F)nc2)cc1)c1cncnc1 (stereo not drawn) [Compound 7]	80 to 100%		
CC(C)(C)C(O)(c1ccc(-c2ccccc2OC(F)(F)F)cc1)c1cncnc1 (stereo not drawn) [Compound 12]	60 to 79%		
COc1ccc(-c2ccc(C(O)(c3cncnc3)C(C)(C)C)cc2)cc1 (stereo not drawn) [Compound 13]	80 to 100%		
CC(C)(C)C(O)(c1cncnc1)c1ccc(-c2ccccc2)cc1Cl (stereo not drawn) [Compound 27]	80 to 100%		
CC(C)(C)C(O)(c1cncnc1)c1ccc(-c2ccccc2)cc1F (stereo not drawn) [Compound 28]	80 to 100%		
CC(C)(C)C(O)(c1ccc(-c2ccc(C(F)(F)F)cc2F)cc1)c1cncnc1 (stereo not drawn) [Compound 29]	80 to 100%		
CC(C)(C)C(O)(c1cncnc1)c1ccc(-c2ccc(C(F)(F)F)cc2F)cc1F (stereo not drawn) [Compound 31]	80 to 100%		
CC(C)(C)c1ccc(-c2ccc(C(O)(c3cncnc3)C(C)(C)C)cc2)cc1 (stereo not drawn) [Compound 33]	80 to 100%		
CC(C)(C)C(O)(c1cccnc1)c1ccc(-c2ccc(OC(F)(F)F)cc2)cc1Cl (stereo not drawn) [Compound 64]		80 to 100%	80 to 100%
CC(C)(C)C(O)(c1cccnc1)c1ccc(-c2ccc(SC(F)(F)F)cc2)cc1Cl (stereo not drawn) [Compound 65]		80 to 100%	80 to 100%
CC(C)(C)C(O)(c1cccnc1)c1ccc(-c2ccc(OC(F)F)cc2)cc1Cl (stereo not drawn) [Compound 66]		< 40%	80 to 100%
CC(C)(C)C(O)(c1cccnc1)c1ccc(-c2ccc(OCC(F)(F)F)cc2)cc1Cl (stereo not drawn) [Compound 67]		80 to 100%	80 to 100%
CC(C)(C)C(O)(c1cccnc1)c1ccc(-c2ccc(C#N)cc2)cc1Cl (stereo not drawn) [Compound 68]		60 to 79%	80 to 100%
CC(C)(C)C(O)(c1cccnc1)c1ccc(-c2ccc(CC#N)cc2)cc1Cl (stereo not drawn) [Compound 69]		40 to 59%	80 to 100%
CC(C)(C)C(O)(c1cccnc1)c1ccc(-c2ccc(C3(C#N)CC3)cc2)cc1Cl (stereo not drawn) [Compound 70]		80 to 100%	80 to 100%
CC(C)(C#N)c1ccc(-c2ccc(C(O)(c3cccnc3)C(C)(C)C)c(Cl)c2)cc1 (stereo not drawn) [Compound 71]		80 to 100%	80 to 100%
CC(C)(C)c1ccc(-c2ccc(C(O)(c3cccnc3)C(C)(C)C)c(Cl)c2)cc1 (stereo not drawn) [Compound 72]		60 to 79%	80 to 100%
Cc1cc(OC(F)(F)F)ccc1-c1ccc(C(O)(c2cccnc2)C(C)(C)C)c(Cl)c1 (stereo not drawn) [Compound 73]		40 to 59%	80 to 100%
Cc1cc(OC(F)(F)F)ccc1-c1ccc(C(O)(c2cncnc2)C(C)(C)C)c(F)c1 (stereo not drawn) [Compound 74]		80 to 100%	80 to 100%
CC(C)(C)C(O)(c1cncnc1)c1ccc(-c2ccc(C3(C#N)CC3)cc2)cc1F (stereo not drawn) [Compound 75]		80 to 100%	80 to 100%
CC(C)(C)C(O)(c1cncnc1)c1ccc(-c2ccc(OCC(F)(F)F)nc2)cc1F (stereo not drawn) [Compound 76]		80 to 100%	60 to 79%
CC(C)(C#N)c1ccc(-c2ccc(C(O)(c3cncnc3)C(C)(C)C)c(F)c2)cc1 (stereo not drawn) [Compound 77]		80 to 100%	80 to 100%
CC(C)(C)C(O)(c1cncnc1)c1ccc(-c2ccc(OC(F)(F)F)cc2F)cc1F (stereo not drawn) [Compound 78]		80 to 100%	80 to 100%

Compound	pest or weed control at 50 ppm [1]	pest or weed control at 100 g/ha [2, 3]	pest or weed control at 100 g/ha [2, 4]
COC(c1cncnc1)(c1ccc(-c2ccc(OC(F)(F)F)cc2)cc1F)C(C)(C)C (stereo not drawn) [Compound 79, 5-(1-(3-fluoro-4′-(trifluoromethoxy)-[1,1′-biphenyl]-4-yl)-1-methoxy-2,2-dimethylpropyl)pyrimidine]		80 to 100%	80 to 100%
COC(c1cncnc1)(c1ccc(-c2ccc(OC(F)(F)F)cc2C)cc1F)C(C)(C)C (stereo not drawn) [Compound 80]		80 to 100%	80 to 100%
COC(c1cncnc1)(c1ccc(-c2ccc(OC(F)(F)F)cc2F)cc1F)C(C)(C)C (stereo not drawn) [Compound 81]		80 to 100%	80 to 100%
COC(c1cncnc1)(c1ccc(-c2ccc(OCC(F)(F)F)nc2)cc1F)C(C)(C)C (stereo not drawn) [Compound 82]		80 to 100%	80 to 100%
COC(c1cncnc1)(c1ccc(-c2ccc(OCC(F)(F)F)cc2)cc1F)C(C)(C)C (stereo not drawn) [Compound 83]		80 to 100%	80 to 100%
COC(c1cncnc1)(c1ccc(-c2ccc(C3(C#N)CC3)cc2)cc1F)C(C)(C)C (stereo not drawn) [Compound 84]		80 to 100%	80 to 100%
COC(c1cncnc1)(c1ccc(-c2ccc(C(C)(C)C#N)cc2)cc1F)C(C)(C)C (stereo not drawn) [Compound 85]		80 to 100%	80 to 100%
CC(C)(C#N)c1ccc(-c2ccc(C(O)(c3cncnc3)C(C)(C)C)c(Cl)c2)cc1 (stereo not drawn) [Compound 86]		60 to 79%	80 to 100%
COc1ncncc1C(O)(c1ccc(-c2ccc(OCC(F)(F)F)nc2)cc1F)C(C)(C)C (stereo not drawn) [Compound 87]		80 to 100%	80 to 100%
COc1ncncc1C(O)(c1ccc(-c2ccc(OC(F)(F)F)cc2C)cc1F)C(C)(C)C (stereo not drawn) [Compound 88]		80 to 100%	80 to 100%
CC(C)(C)C(O)(c1cncnc1)c1ccc(-c2ccc(C3(C#N)CC3)cc2)cc1Cl (stereo not drawn) [Compound 89]		60 to 79%	80 to 100%
Cc1cc(-c2ccc(C(C)(C)C#N)cc2F)ccc1C(O)(c1cncnc1)C(C)(C)C (stereo not drawn) [Compound 91]		80 to 100%	80 to 100%
COc1ncncc1C(O)(c1ccc(-c2ccc(C(C)(C)C#N)cc2)cc1F)C(C)(C)C (stereo not drawn) [Compound 92]		80 to 100%	80 to 100%
Cc1cc(-c2ccc(OC(F)(F)F)cn2)ccc1C(O)(c1cncnc1)C(C)(C)C (stereo not drawn) [Compound 94, 2,2-dimethyl-1-(2-methyl-4-(5-(trifluoromethoxy)pyridin-2-yl)phenyl)-1-(pyrimidin-5-yl)propan-1-ol]		80 to 100%	80 to 100%
CC(C)(C#N)c1ccc(-c2ccc(C(O)(c3cncnc3)C(C)(C)C)c(Cl)c2)c(F)c1 (stereo not drawn) [Compound 95]		80 to 100%	80 to 100%
COc1ncncc1C(O)(c1ccc(-c2ccc(OC(F)(F)F)cc2)cc1F)C(C)(C)C (stereo not drawn) [Compound 96]		80 to 100%	80 to 100%
CC(C)(C)C(O)(c1cncnc1)c1ccc(-c2ccc(C3(C#N)CC3)cc2F)cc1F (stereo not drawn) [Compound 97]		80 to 100%	80 to 100%
Cc1cc(OC(F)(F)F)ccc1-c1ccc(C(O)(c2cncnc2)C(C)(C)C)c(Cl)c1 (stereo not drawn) [Compound 99]		80 to 100%	80 to 100%
COc1ncncc1C(O)(c1ccc(-c2ccc(C3(C#N)CC3)cc2)cc1F)C(C)(C)C (stereo not drawn) [Compound 100]		80 to 100%	80 to 100%
CC(C)(C#N)c1ccc(-c2ccc(C(O)(c3cncnc3)C(C)(C)C)c(F)c2)c(F)c1 (stereo not drawn) [Compound 101]		80 to 100%	80 to 100%
CC(C)(C)C(O)(c1cncnc1)c1ccc(-c2ccc(OC(F)(F)F)cn2)cc1F (stereo not drawn) [Compound 102]		80 to 100%	80 to 100%
Cc1cc(-c2ccc(C3(C#N)CC3)cc2F)ccc1C(O)(c1cncnc1)C(C)(C)C (stereo not drawn) [Compound 103]		80 to 100%	80 to 100%
CC(C)(C)C(O)(c1cncnc1)c1ccc(-c2ccc(OC(F)(F)F)cc2F)cc1Cl (stereo not drawn) [Compound 104]		80 to 100%	80 to 100%
Cc1cc(C(C)(C)C#N)ccc1-c1ccc(C(O)(c2cncnc2)C(C)(C)C)c(F)c1 (stereo not drawn) [Compound 105]		80 to 100%	80 to 100%
CC(C)(C)C(O)(c1cncnc1)c1ccc(-c2ccc(C3(C#N)CC3)cc2F)cc1Cl (stereo not drawn) [Compound 106]		60 to 79%	80 to 100%
